“Also recorded” adds a separate entry of the source.
Columns and labels:
[1] = test system: dopaminergic neuronal terminals in the left striatum; assay: [3H]-mazindol labelling of dopaminergic terminals in striatum after 6-OHDA lesion; type: in vivo, rat; conditions: FIG. 16B: BCL-ACP 3.75 and 0.25 mg/kg bid; L-DOPA 8 mg/kg with benserazide 12.5 mg/kg; vs non-treated 6-OHDA rats
Method: (§1) Wistar rats (5 weeks) were used after an acclimatization period of at least 5 days. Surgery was performed under ketamine (50 mg/kg) and xylazine (10 mg/kg). Animals received an unilateral injection of 12 μg of 6-OHDA (sigma Aldrich) dissolved in 6 μl of 0.9% sterile NaCl containing 0.1% ascorbic acid (to protect 6-OHDA from oxidation), at the flow rate of 1 μl/min, in the left substantia nigra pars compacta. The stereotaxic coordinates of the injection site will be: anteroposterior+2.2 mm, lateral 2.0 mm, dorsoventral+3 mm with the incisor bar at +5.0 mm above the interaural plane, according to the rat stereotaxic atlas by De Groot (1959).
(§2) The first administration of treatment or vehicle has been performed the day before the stereotaxic injection of 6-OHDA (for the lesion groups) or vehicle and all along the 15 days preceding the behavioral tests. […] During the study and for each animal, the volume of per os administrations was determined on the basis of the mean body weight of the animals of the corresponding group. Body weights will be determined twice a week and the volume of administration will thus be adjusted consequently. […]
The loss of DA terminals in the striatum was assessed as an index of the extent of the dopaminergic denervation by analysis of [^3H]-mazindol binding to dopamine uptake sites. […]

[2] = test system: dopaminergic neuron cell bodies of subtantia nigra pars compacta; assay: Quantification of TH positive neurons in substantia nigra after 6-OHDA lesion; type: in vivo, rat; conditions: FIG. 16A: BCL-ACP 3.75 and 0.25 mg/kg bid; L-DOPA 8 mg/kg with benserazide 12.5 mg/kg; vs non-treated 6-OHDA rats
Method: as §1, §2
TH positive neurons were counted in a set of the three sections centered on the track of the 6-OHDA injection needle in the SN, covering almost all the SN. […] Cell counted is done using a microscope connected to a computer image analysis system by a CDD camera.

Compound: N[C@@H](Cc1ccc(O)c(O)c1)C(=O)O [L-DOPA, levodopa]
- density of dopaminergic neuronal terminals in the left striatum (OD of [3H]-mazindol labelling) [1]: failed to inhibit; also recorded: not observed
- number of dopaminergic neurons in the left (intoxicated) part of SN [2]: failed to inhibit; also recorded: not observed
